Test system: Malassezia furfur CBS1878
Assay: Anti Malassezia activity: enumeration of residual microorganisms after contact with test product
Assay type: cell-based
Settings: for Enumeration of residual microorganisms after contact: product in mixture A inoculated with 1% inoculum of M. furfur at 10^7 CFU/ml; for log reduction value: versus initial number of microorganisms
Description: Indeed, M. furfur may proliferate anew if it is not completely or sufficiently removed. […] This component is generally measured by estimating the decay of microbial colonies over time.
Five formulas are tested in this test: • A compound used as reference: zinc pyrithione at 1.0% w/w in a mixture A comprising: sodium laureth sulfate 14.3%, alkyl dimethyl betaine 10.0%, decyl glucoside 3.8%, sorbitan monolaurate 2.0%, citric acid monohydrate 10% solution, qs pH=5; water qs 100; • A Zingiber zerumbet rhizome extract obtained by heptanic extraction from the dry and ground rhizome, at 2.0% w/w in mixture A; • A Zingiber zerumbet rhizome extract obtained by ethanolic extraction, at 2.0% w/w in mixture A; • A Zingiber zerumbet rhizome extract obtained by supercritical CO2 in a water-soluble excipient (butylene glycol) at 3.0% w/w in mixture A. This is a commercial material called Legance®, sold by the firm Sederma. The INCI name of this material is: Butylene glycol-Zingiber Zerumbet Extract.
An inoculation of 20 g of test product is carried out with 1% inoculum of Malassezia furfur titrating at 10^7 CFU/ml. After a determined contact time, 1 g of product is taken and a 1/10 dilution is carried out in the neutralizing diluent. Successive dilutions at 1/10 up to 1/1000 dilution are carried out in the diluent. 1 ml is filtered on a 0.45 μm membrane in ester and cellulose acetate in the presence of 50 ml of sterile demineralized water (SDW), then two rinses are carried out with 50 ml of SDW.
The chosen contact times are 1 h, 2 h, 5 h and 8 hours. The neutralizing diluent is TSB+10% polysorbate 80, the diluent is tryptone-salt. The rinsing liquid is sterile demineralized water.

In the case of zinc pyrithione [Compound 1], the “activity on Malassezia furfur (in words)” value is reported as “shows activity on Malassezia furfur from 1 hour of contact”, the “reduction in the number of microorganisms” value (8 hours of contact) is reported as “exceeds 3 log” and the “Enumeration of residual microorganisms after contact” value (contact time 1 hour) is reported as 7.2 × 10^4 CFU/g. For the same substance, the log reduction value (contact time 1 hour) was 0.23, the “Enumeration of residual microorganisms after contact” value (contact time 2 hours) was 4.8 × 10^4 CFU/g and the log reduction value (contact time 2 hours) was 0.40. The “Enumeration of residual microorganisms after contact” value (contact time 5 hours) was 4.9 × 10^3 CFU/g, the log reduction value (contact time 5 hours) was 1.39 and the “Enumeration of residual microorganisms after contact” value (contact time 8 hours) was <1.0 × 10^2 CFU/g. The log reduction value (contact time 8 hours) was greater than 3.08.
